Source: patent US8198469B2, “Crystalline forms of tigecycline and processes for preparation thereof” (Teva Pharmaceutical Industries Ltd., priority 2006, dated 2012)
Blank lines part the entries; values can stand above or below the compound they belong to.

Experiments:
Assay type in all cases: physicochemical
[1] = Polymorphic transition due to heating in oven, solid analyzed by XRD
Method: (§1) X-Ray powder diffraction data were obtained by using methods known in the art, using a SCINTAG powder X-Ray diffractometer model X'TRA equipped with a solid-state detector. A Copper radiation of 1.5418 Å was used. A round aluminum sample holder with zero background was used. The scanning parameters included: range: 20 to 40° 2θ; scan mode: continuous scan; step size: 0.05°. The rate for Form XX [FIG. 16] was 3°/min using spin mode while the remaining crystalline forms were 5°/min using spin mode. All peak positions are within ±0.2 degrees two theta.
Tigecycline Form X was placed in oven at a temperature of between about 50-150° C. for about 0.5-2 hr (for example: 60 for 2 hr, 140° C. for 1 hr).
Tigecycline Form XI was placed in oven at a temperature of between about 50-80° C. for about 1-2 hr (for example: 60 for 2 hr).
Tigecycline Form XVII was placed in oven at a temperature of between about 50-70° C. for about 1-2 hr (for example: 60 for 2 hr).
Tigecycline Form XVII was placed in oven at a temperature of between about 90-110° C. for about 0.5-1 hr (for example: 100 for 0.5 hr).
Tigecycline Form XVIII was placed in oven at a temperature of between about 120-150° C. for about 0.5-1 hr (for example: 140 for 1 hr).
Tigecycline Form XXIV was placed in oven at a temperature of between about 110-140° C. for about 0.5-1 hr (for example: 120 for 0.5 hr, 140° C. for 1 hr).

[2] = Strong grinding by mortar and pestle, solid analyzed by XRD; settings: about 0.5-1 min
Method: as §1
Tigecycline Form XVII was strongly ground by mortal and pestle for about 0.5-1 min.

[3] = Pressing by a laboratory press, solid analyzed by XRD; settings: pressure of about 1-2 tons for about 1-3 min (e.g. 2 tons for 1 min)
Method: as §1
Tigecycline Form XI was pressed by a laboratory press by pressure of about 1-2 tons for about 1-3 min (for example: 2 tons for 1 min).
Tigecycline Form XVII was pressed by a laboratory press by pressure of about 1-2 tons for about 1-3 min (for example: 2 tons for 1 min).

[4] = Vacuum drying of the solid, form re-analyzed by XRD; settings: for Solid form after vacuum drying: dried under vacuum, temperature and time not stated; for Solid form by XRD after drying: overnight at 40° C. under vacuum
Method: as §1
Tigecycline sample was dissolved in 20 volumes of hot iso-propanol. The solution thus obtained was allowed to cool at ambient temperature and then further cooled at 0-5° C. for about half an hour. The resulted suspension was filtered and the solid air-dried on the filter to afford Tigecycline of Form XII. The material was further dried overnight at 40° C. under vacuum without affecting the polymorphs, i.e. the vacuum dried Tigecycline was still identified as Form XII. The sizes of the Tigecycline Form XII crystals were less than 300 μm.
Tigecycline sample was dissolved in 20 volumes of n-propanol or 40 volumes of hot ethanol. The solution thus obtained was allowed to cool at ambient temperature and then further cooled at 0-5° C. for about half an hour. The resulted suspension was filtered and the solid air-dried on the filter to afford Tigecycline Form XIII. The material was further dried overnight under vacuum at 40° C. without affecting the polymorphs, i.e. the vacuum dried Tigecycline was still identified as Form XIII. The sizes of the Tigecycline Form XIII crystals were less than 300 μm.
2 grams of Tigecycline was dissolved in 440 mL of DDW and pH of the mixture was adjusted at 7.38 and 60 mL of THF were then added. The resulted solution was extracted 6 times with 60 mL portions of dichloromethane while pH is carefully controlled at 7.2-7.4. The combined organic extract was then dried over sodium sulfate and concentrated to about 10 mL to afford a suspension of Tigecycline. The solid was filtered and washed with heptane. Analysis of the material indicated Form XVII Tigecycline.
2 grams of Tigecycline was dissolved in 440 mL of DDW and pH of the mixture was adjusted at 7.33 and 60 mL of THF were then added. The resulted solution was extracted 6 times with 60 mL portions of dichloromethane while the pH is carefully controlled at 7.2-7.4. The combined organic extract was then dried over sodium sulfate, filtered and the solid was washed with 50 mL of dichloromethane into the initial filtrate. The combined filtrate was concentrated to 30-40 mL and the concentrated was stirred for about half an hour at 0-5° C. A precipitation occurred upon the cooling and the solid was collected and vacuum dried. Analysis of the material before and after the drying indicated Form XVIII of Tigecycline in both cases.
A solution of Tigecycline in dichloromethane was provided between 5 and 10 g/L, and dried over sodium sulfate. Toluene was added to the solution so that the total volume increased to about 1.15 of the original volume. The resulted solution was then partially evaporated so that the volume of the residual mixture was similar to that of the toluene added. The resulted suspension was filtered and the solid thus obtained was dried under vacuum. Analysis of the material before and after the drying indicated Form XIX of Tigecycline in both cases.
A solution of Tigecycline in dichloromethane was provided and dried over sodium sulfate. Di-n-butyl ether was added to the solution so that the total volume increased to about 1.15 of the original volume. The resulting solution was then partially evaporated so that the volume of the residual mixture was similar to that of the di-n-butyl ether added. The resulted suspension was filtered and the cake washed with di-n-butyl ether. Tigecycline thus obtained was identified as Form VIII in both wet and vacuum dried samples. […]

[5] = Exposure to 0% or 100% relative humidity for 7 days at room temperature, crystal form monitored by XRD
Method: as §1, with “theta. […]” for “theta.”
Form I prepared from ethyl acetate (about 80 mg) as described in U.S. Application Ser. No. 60/796,800 was exposed to either 0% or 100% relative humidity for 7 days at room temperature. After the exposure the crystal form was monitored by XRD. […]

[6] = 120-150° C. for about 0.5-1 hr (e.g. 140° C. for 1 hr)

- Solid form by XRD after drying [4]: Form XII
Structure (SMILES): CN(C)c1cc(NC(=O)CNC(C)(C)C)c(O)c2c1C[C@H]1C[C@H]3[C@H](N(C)C)C(O)=C(C(N)=O)C(=O)[C@@]3(O)C(O)=C1C2=O [Form XII, Tigecycline]

- Solid form by XRD after drying [4]: Form XIII
Structure (SMILES): CN(C)c1cc(NC(=O)CNC(C)(C)C)c(O)c2c1C[C@H]1C[C@H]3[C@H](N(C)C)C(O)=C(C(N)=O)C(=O)[C@@]3(O)C(O)=C1C2=O [Form XIII, Tigecycline]

- Solid form by XRD after heating in oven [1, 6]: amorphous form
- Solid form after vacuum drying [4]: Form XVIII
Structure (SMILES): CN(C)c1cc(NC(=O)CNC(C)(C)C)c(O)c2c1C[C@H]1C[C@H]3[C@H](N(C)C)C(O)=C(C(N)=O)C(=O)[C@@]3(O)C(O)=C1C2=O [Form XVIII, Tigecycline]

- Crystal form by XRD after exposure to relative humidity ([5]; 0% RH): Form XXIII
Structure (SMILES): CN(C)c1cc(NC(=O)CNC(C)(C)C)c(O)c2c1C[C@H]1C[C@H]3[C@H](N(C)C)C(O)=C(C(N)=O)C(=O)[C@@]3(O)C(O)=C1C2=O [Form VII, Tigecycline]

- Crystal form by XRD after exposure to relative humidity ([5]; 100% RH): Form XXII
Structure (SMILES): CN(C)c1cc(NC(=O)CNC(C)(C)C)c(O)c2c1C[C@H]1C[C@H]3[C@H](N(C)C)C(O)=C(C(N)=O)C(=O)[C@@]3(O)C(O)=C1C2=O [Form IX, Tigecycline]

- Solid form after vacuum drying [4]: Form VIII
Structure (SMILES): CN(C)c1cc(NC(=O)CNC(C)(C)C)c(O)c2c1C[C@H]1C[C@H]3[C@H](N(C)C)C(O)=C(C(N)=O)C(=O)[C@@]3(O)C(O)=C1C2=O [Form VIII, Tigecycline]

- Solid form after vacuum drying [4]: Form XIX
Structure (SMILES): CN(C)c1cc(NC(=O)CNC(C)(C)C)c(O)c2c1C[C@H]1C[C@H]3[C@H](N(C)C)C(O)=C(C(N)=O)C(=O)[C@@]3(O)C(O)=C1C2=O [Form XIX, Tigecycline]

Further lines, the compound ahead of its results:

Structure (SMILES): CN(C)c1cc(NC(=O)CNC(C)(C)C)c(O)c2c1C[C@H]1C[C@H]3[C@H](N(C)C)C(O)=C(C(N)=O)C(=O)[C@@]3(O)C(O)=C1C2=O [Form X, Tigecycline]
- Solid form by XRD after heating in oven ([1]; 50-150° C. for about 0.5-2 hr (e.g. 60 for 2 hr, 140° C. for 1 hr)): amorphous form

Structure (SMILES): CN(C)c1cc(NC(=O)CNC(C)(C)C)c(O)c2c1C[C@H]1C[C@H]3[C@H](N(C)C)C(O)=C(C(N)=O)C(=O)[C@@]3(O)C(O)=C1C2=O [Form XVII, Tigecycline]
- Solid form by XRD after strong grinding [2]: mixture of Form XVII and Form VI
- Solid form by XRD after pressing [3]: mixture of Form XVII and Form VI
- Solid form by XRD after heating in oven ([1]; 50-70° C. for about 1-2 hr (e.g. 60 for 2 hr)): mixture of Form XVII and Form VI
- Solid form by XRD after heating in oven ([1]; 90-110° C. for about 0.5-1 hr (e.g. 100 for 0.5 hr)): Form VI
- Solid form after vacuum drying [4]: Form XVII

Structure (SMILES): CN(C)c1cc(NC(=O)CNC(C)(C)C)c(O)c2c1C[C@H]1C[C@H]3[C@H](N(C)C)C(O)=C(C(N)=O)C(=O)[C@@]3(O)C(O)=C1C2=O [Form XI, Tigecycline]
- Crystal form by XRD after exposure to relative humidity ([5]; 0% RH): mixture of Form XI and Form VI
- Solid form by XRD after pressing [3]: mixture of Form XI and Form VI
- Solid form by XRD after heating in oven ([1]; 50-80° C. for about 1-2 hr (e.g. 60 for 2 hr)): mixture of Form XI and Form VI

Structure (SMILES): CN(C)c1cc(NC(=O)CNC(C)(C)C)c(O)c2c1C[C@H]1C[C@H]3[C@H](N(C)C)C(O)=C(C(N)=O)C(=O)[C@@]3(O)C(O)=C1C2=O [Form I, Tigecycline]
- Crystal form by XRD after exposure to relative humidity ([5]; 0% RH): New form XXV
- Crystal form by XRD after exposure to relative humidity ([5]; 100% RH): Amorphous
- Solid form by XRD after heating in oven [1, 6]: amorphous form

Structure (SMILES): CN(C)c1cc(NC(=O)CNC(C)(C)C)c(O)c2c1C[C@H]1C[C@H]3[C@H](N(C)C)C(O)=C(C(N)=O)C(=O)[C@@]3(O)C(O)=C1C2=O [Form XXIV, Tigecycline]
- Solid form by XRD after heating in oven ([1]; 110-140° C. for about 0.5-1 hr (e.g. 120 for 0.5 hr, 140° C. for 1 hr)): amorphous form

Structure (SMILES): CN(C)c1cc(NC(=O)CNC(C)(C)C)c(O)c2c1C[C@H]1C[C@H]3[C@H](N(C)C)C(O)=C(C(N)=O)C(=O)[C@@]3(O)C(O)=C1C2=O [amorphous Tigecycline, Tigecycline]
- Solid form by XRD after drying [4]: amorphous
